Measured values taken from patent publication US7745619B2, “Vinca derivatives” (priority 2003, dated 2010).
Like-named read-outs stand apart in the source and are kept apart here.

Experiments:
[1] = test system: HeLa S-3 cells; assay: HeLa GI50 determination (SRB growth inhibition); format: cell-based, human; settings: Homo sapiens, HeLa S3, 48 h
Method: Growth inhibition (GI50) values were measured on the human cervical carcinoma cell line, HeLa S-3, which were selected for growth on plastic. The HeLa cell assay was based on the description of Skehan et al., J. Natl. Cancer Inst., 82:1107-12 (1990), which is hereby incorporated by reference in its entirety. HeLa cells were plated at 2×10^4 cells/well in 96 well plates. One day later, a control plate was fixed by the addition of TCA to 5%. After five rinses with tap water, the plate was air-dried and stored at 4° C. Test compounds were added to the remaining plates at 10-fold dilutions. Two days later, all plates were fixed as described above. Cells were then stained by the addition of 100 μL per well of 0.4% sulforhodamine B (SRB) in 1% acetic acid for 30 min at 4° C. Wells were then quickly rinsed 5× with 1% acetic acid and allowed to air dry. The SRB was then solubilized by the addition of 100 μL per well of unbuffered 10 mM Tris base. Dye was quantified by measuring absorbance at 490 nm on a Molecular Devices microplate reader. Growth inhibition was calculated according to the following equation: GI=100×(T−T0)/(C−T0), where the optical density (OD) of the test well after 2 days of treatment was T, the OD of the wells in the control plate on day 0 was T0 and C was the OD of untreated wells. Plots of percent growth inhibition versus inhibitor concentration were used to determine the GI50.

[2] = test system: MCF-7 cells; assay: MCF-7 GI50 determination (crystal violet growth inhibition); format: cell-based, human; settings: Homo sapiens, MCF7, 96 h
Method: Growth inhibition (GI50) values were measured on the human breast carcinoma line, MCF-7. MCF-7 cells were plated at 2×10^4 cells/well in 96 well plates and grown for 24 hours in drug free media. On day 2, test compounds were added to the plates at 10-fold dilutions. Four days later, cells were fixed by the addition of glutaraldehyde to 0.75%. After 30 min, the fixed cells were extensively rinsed with distilled water and dried at room temperature for one hour. The cells were then stained with a 0.2% crystal violet solution for one hour at room temperature. Unbound stain was removed by ten rinses with tap water and plates were allowed to air dry for 30 min. The crystal violet was then solubilized by the addition of 10% acetic acid for 15 min and quantified by measuring absorbance at 570 nm on a Molecular Devices microplate reader. Growth inhibition was calculated according to the following equation: GI=[…], where the optical density (OD) of the test well after 4 days of treatment was T, the OD of the wells in the control plate on day 0 was T0. Plots of percent growth inhibition versus inhibitor concentration were used to determine the GI50.

[3] = read-out: MCF-7 Cells GI50 (nM)
[4] = HeLa S-3 cells, 2 days of treatment, sulforhodamine B, read-out: HeLa Cells GI50
[5] = MCF-7 cells, 4 days of treatment, crystal violet, read-out: MCF-7 Cells GI50

SMILES | GI50 ([1]; read-out: HeLa Cells GI50 (nM)) | GI50 [2, 3] | GI50 [1, 4] | GI50 [2, 5]
CC[C@]1(O)C[C@H]2CN(CCc3c([nH]c4ccc(Nc5ccc(OC)cc5)cc34)[C@@](C(=O)OC)(c3cc4c(cc3OC)N(C)[C@H]3[C@@](O)(C(=O)OC)[C@H](OC(C)=O)[C@]5(CC)C=CCN6CC[C@]43[C@@H]65)C2)C1 [Example 83, 12′-(4-methoxyphenylamino)vinblastine] | 300 nM | 500 nM |  | 
CCc1ccc2[nH]c3c(c2c1)CCN1C[C@H](C[C@@](O)(CC)C1)C[C@]3(C(=O)OC)c1cc2c(cc1OC)N(C)[C@H]1[C@@](O)(C(=O)OC)[C@H](OC(C)=O)[C@]3(CC)C=CCN4CC[C@]21[C@@H]43 [Example 77, 12′-ethylvinblastine] |  |  | 0.3 nM | 0.6 nM
CC[C@]1(O)C[C@H]2CN(CCc3c([nH]c4ccc(-c5ccc(F)cc5)cc34)[C@@](C(=O)OC)(c3cc4c(cc3OC)N(C)[C@H]3[C@@](O)(C(=O)OC)[C@H](OC(C)=O)[C@]5(CC)C=CCN6CC[C@]43[C@@H]65)C2)C1 [Example 10, 12′-(4-fluorophenyl) vinblastine] | 250 nM | 95 nM |  | 
CC[C@]1(O)C[C@H]2CN(CCc3c([nH]c4ccc(/C=C/CNC(=O)OC(C)(C)C)cc34)[C@@](C(=O)OC)(c3cc4c(cc3OC)N(C)[C@H]3[C@@](O)(C(=O)OC)[C@H](OC(C)=O)[C@]5(CC)C=CCN6CC[C@]43[C@@H]65)C2)C1 [Example 31, 12′-(3-tert-butoxycarbonylaminopropenyl) vinblastine] | 600 nM | 300 nM |  | 
CC[C@]1(O)C[C@H]2CN(CCc3c([nH]c4cc(I)c(C)cc34)[C@@](C(=O)OC)(c3cc4c(cc3OC)N(C=O)[C@H]3[C@@](O)(C(=O)OC)[C@H](OC(C)=O)[C@]5(CC)C=CCN6CC[C@]43[C@@H]65)C2)C1 [Example 92, 13′-iodo-12′-methyl vincristine] | 30 nM | 30 nM |  | 
CC[C@]1(O)C[C@H]2CN(CCc3c([nH]c4ccc(N5CCCCC5)cc34)[C@@](C(=O)OC)(c3cc4c(cc3OC)N(C)[C@H]3[C@@](O)(C(=O)OC)[C@H](OC(C)=O)[C@]5(CC)C=CCN6CC[C@]43[C@@H]65)C2)C1 [Example 85, 12′-(1-piperidinyl) vinblastine] | 20 nM | 30 nM |  | 
CC[C@]1(O)C[C@H]2CN(CCc3c([nH]c4ccc(SCCCN5CCCCC5)cc34)[C@@](C(=O)OC)(c3cc4c(cc3OC)N(C)[C@H]3[C@@](O)(C(=O)OC)[C@H](OC(C)=O)[C@]5(CC)C=CCN6CC[C@]43[C@@H]65)C2)C1 [Example 50, 12′-(3-(piperidin-1-yl)propylsulfanyl) vinblastine] |  |  | 20 nM | 40 nM
CC[C@]1(O)C[C@H]2CN(CCc3c([nH]c4ccc(N)cc34)[C@@](C(=O)OC)(c3cc4c(cc3OC)N(C)[C@H]3[C@@](O)(C(=O)OC)[C@H](OC(C)=O)[C@]5(CC)C=CCN6CC[C@]43[C@@H]65)C2)C1 [Example 80, 12′-aminovinblastine] |  |  | 200 nM | 200 nM
CC[C@]1(O)C[C@H]2CN(CCc3c([nH]c4ccc(C(=O)NC)cc34)[C@@](C(=O)OC)(c3cc4c(cc3OC)N(C)[C@H]3[C@@](O)(C(=O)OC)[C@H](OC(C)=O)[C@]5(CC)C=CCN6CC[C@]43[C@@H]65)C2)C1 [Example 69, 12′-N-(methylaminocarbonyl)vinblastine] | 600 nM | > 1000 nM |  | 
CC[C@]1(O)C[C@H]2CN(CCc3c([nH]c4ccc(SCCCO)cc34)[C@@](C(=O)OC)(c3cc4c(cc3OC)N(C)[C@H]3[C@@](O)(C(=O)OC)[C@H](OC(C)=O)[C@]5(CC)C=CCN6CC[C@]43[C@@H]65)C2)C1 [Example 33, 12′-(4-hydroxypropylsulfanyl)vinblastine] |  |  | 20 nM | 30 nM
CCCCCC(=O)c1ccc2[nH]c3c(c2c1)CCN1C[C@H](C[C@@](O)(CC)C1)C[C@]3(C(=O)OC)c1cc2c(cc1OC)N(C=O)[C@H]1[C@@](O)(C(=O)OC)[C@H](OC(C)=O)[C@]3(CC)C=CCN4CC[C@]21[C@@H]43 [Example 72, 12′-hexanoylvincristine] | 40 nM | 50 nM |  | 
CC[C@]1(O)C[C@H]2CN(CCc3c([nH]c4ccc(C#C[Si](C)(C)C)cc34)[C@@](C(=O)OC)(c3cc4c(cc3OC)N(C)[C@H]3[C@@](O)(C(=O)OC)[C@H](OC(C)=O)[C@]5(CC)C=CCN6CC[C@]43[C@@H]65)C2)C1 [Example 16, 12′-(trimethylsilylethynyl)vinblastine] |  |  | 300 nM | 40 nM
CC[C@]1(O)C[C@H]2CN(CCc3c([nH]c4ccc(C=O)cc34)[C@@](C(=O)OC)(c3cc4c(cc3OC)N(C)[C@H]3[C@@](O)(C(=O)OC)[C@H](OC(C)=O)[C@]5(CC)C=CCN6CC[C@]43[C@@H]65)C2)C1 [Example 61, 12′-formylvinblastine] |  |  | 3 nM | 3 nM
CC[C@]1(O)C[C@H]2CN(CCc3c([nH]c4ccc(-c5ccccc5)cc34)[C@@](C(=O)OC)(c3cc4c(cc3OC)N(C)[C@H]3[C@@](O)(C(=O)OC)[C@H](OC(C)=O)[C@]5(CC)C=CCN6CC[C@]43[C@@H]65)C2)C1 [Example 6, 12′-phenylvinblastine] | 400 nM | 300 nM |  | 
CCc1cc2[nH]c3c(c2cc1CC)CCN1C[C@H](C[C@@](O)(CC)C1)C[C@]3(C(=O)OC)c1cc2c(cc1OC)N(C=O)[C@H]1[C@@](O)(C(=O)OC)[C@H](OC(C)=O)[C@]3(CC)C=CCN4CC[C@]21[C@@H]43 [Example 95, 12′,13′-diethylvincristine] | 20 nM | 30 nM |  | 
CC[C@]1(O)C[C@H]2CN(CCc3c([nH]c4ccc(SCCCCO)cc34)[C@@](C(=O)OC)(c3cc4c(cc3OC)N(C)[C@H]3[C@@](O)(C(=O)OC)[C@H](OC(C)=O)[C@]5(CC)C=CCN6CC[C@]43[C@@H]65)C2)C1 [Example 32, 12′-(4-hydroxybutylsulfanyl)vinblastine] | 35 nM | 30 nM |  | 
CC[C@]1(O)C[C@H]2CN(CCc3c([nH]c4ccc(CCC(C)C)cc34)[C@@](C(=O)OC)(c3cc4c(cc3OC)N(C=O)[C@H]3[C@@](O)(C(=O)OC)[C@H](OC(C)=O)[C@]5(CC)C=CCN6CC[C@]43[C@@H]65)C2)C1 [Example 73, 12′-(3-methylbutyl) vincristine] | 200 nM | 300 nM |  | 
CCOC(=O)/C=C/c1ccc2[nH]c3c(c2c1)CCN1C[C@H](C[C@@](O)(CC)C1)C[C@]3(C(=O)OC)c1cc2c(cc1OC)N(C)[C@H]1[C@@](O)(C(=O)OC)[C@H](OC(C)=O)[C@]3(CC)C=CCN4CC[C@]21[C@@H]43 [Example 26, 12′-(2-ethoxycarbonylvinyl)vinblastine] | 165 nM | 70 nM |  | 
CC[C@]1(O)C[C@H]2CN(CCc3c([nH]c4cc(I)c(I)cc34)[C@@](C(=O)OC)(c3cc4c(cc3OC)N(C)[C@H]3[C@@](O)(C(=O)OC)[C@H](OC(C)=O)[C@]5(CC)C=CCN6CC[C@]43[C@@H]65)C2)C1 [Example 91, 12′,13′-diiodovinblastine] |  |  | 60 nM | 200 nM
CC[C@]1(O)C[C@H]2CN(CCc3c([nH]c4ccc(N5CCOCC5)cc34)[C@@](C(=O)OC)(c3cc4c(cc3OC)N(C)[C@H]3[C@@](O)(C(=O)OC)[C@H](OC(C)=O)[C@]5(CC)C=CCN6CC[C@]43[C@@H]65)C2)C1 [Example 86, 12′-(4-morpholino) vinblastine] | 30 nM | 50 nM |  | 
CC[C@]1(O)C[C@H]2CN(CCc3c([nH]c4ccc(SCC(=O)NC)cc34)[C@@](C(=O)OC)(c3cc4c(cc3OC)N(C)[C@H]3[C@@](O)(C(=O)OC)[C@H](OC(C)=O)[C@]5(CC)C=CCN6CC[C@]43[C@@H]65)C2)C1 [Example 46, 12′-(methylaminocarbonylmethylsulfanyl)vinblastine] | 200 nM | 500 nM |  | 
CC#Cc1ccc2[nH]c3c(c2c1)CCN1C[C@H](C[C@@](O)(CC)C1)C[C@]3(C(=O)OC)c1cc2c(cc1OC)N(C)[C@H]1[C@@](O)(C(=O)OC)[C@H](OC(C)=O)[C@]3(CC)C=CCN4CC[C@]21[C@@H]43 [Example 18, 12′-propynylvinblastine] |  |  | 300 nM | 300 nM
